The results in this text go back to US8361998B2, “Compounds and their use as IKACh blockers” (AstraZeneca AB, priority 2010, dated 2013).

pIC50: −log10 of the molar value.

The experiment has as its target T1, human cardiac ion channel proteins hKir3.1/Kir3.4 (Homo sapiens, UniProt P48544+P48549).
T1 construct: expressed in transfected cells
T1 sequence (P48549 1-501): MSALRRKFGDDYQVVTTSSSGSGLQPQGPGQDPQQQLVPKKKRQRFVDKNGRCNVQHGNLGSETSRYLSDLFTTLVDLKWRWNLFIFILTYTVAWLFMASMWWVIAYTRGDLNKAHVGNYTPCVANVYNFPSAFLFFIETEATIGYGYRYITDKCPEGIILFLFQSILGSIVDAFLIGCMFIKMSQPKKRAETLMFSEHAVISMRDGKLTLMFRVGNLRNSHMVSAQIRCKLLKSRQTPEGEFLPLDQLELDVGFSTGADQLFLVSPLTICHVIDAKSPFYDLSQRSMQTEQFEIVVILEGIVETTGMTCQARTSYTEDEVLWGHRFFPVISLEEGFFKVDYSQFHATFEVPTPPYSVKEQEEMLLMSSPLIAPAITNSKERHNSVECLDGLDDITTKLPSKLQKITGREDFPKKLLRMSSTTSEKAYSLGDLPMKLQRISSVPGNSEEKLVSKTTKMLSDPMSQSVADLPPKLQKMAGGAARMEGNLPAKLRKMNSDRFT
T1 sequence (P48544 1-419): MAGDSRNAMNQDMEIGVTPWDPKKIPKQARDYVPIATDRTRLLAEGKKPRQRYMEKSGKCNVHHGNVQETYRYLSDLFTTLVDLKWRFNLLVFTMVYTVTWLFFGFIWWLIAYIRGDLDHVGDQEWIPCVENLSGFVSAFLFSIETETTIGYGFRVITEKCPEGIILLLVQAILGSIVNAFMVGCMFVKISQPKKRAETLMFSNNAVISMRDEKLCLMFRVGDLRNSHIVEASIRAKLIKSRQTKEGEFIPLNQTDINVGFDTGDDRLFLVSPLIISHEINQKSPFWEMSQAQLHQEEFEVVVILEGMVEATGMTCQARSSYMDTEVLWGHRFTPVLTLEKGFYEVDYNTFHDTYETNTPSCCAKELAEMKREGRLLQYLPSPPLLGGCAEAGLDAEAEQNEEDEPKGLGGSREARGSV
Nature of the experiment: Atomic Absorption Screening (AAS) Rb efflux assay of hKir3.1/Kir3.4 block, carbachol/high K+ stimulated, 10-pt or 7-pt CR. The following applies: 10-pt CR (0.003 to 67 μmol/L), AAS Rb efflux, CHO-K1 cells expressing hKir3.1/Kir3.4; mean of >4 replicates; read-out: IKACh IC50 10-pt CR, AAS. In kind it is cell-based. The text has this:
Human KCNJ3 encoding Kir3.1 (Genbank acc. No. NM_002239) was inserted between EcoRI and NotI in the pIRESneo3 vector (Clontech Laboratories, Inc. CA, USA). Human KCNJ5 encoding Kir3.4 (Genbank Acc. No. BC069482) was inserted between EcoR1 and Not1 in the pIRESpuro3 vector (Clontech Laboratories, Inc. CA, USA). A Kozak sequence (GCCACC) was introduced before the start codon ATG of both constructs. Chinese Hamster Ovary K1, CHO-FLP/IN, cells (Invitrogen Corporation, Paisley, UK) were transfected simultaneously using Lipofectamine 2000 reagent (Invitrogen Corporation, Paisley, UK). Geneticin 600 μg/mL (Invitrogen Corporation, Paisley, UK) and puromycin 3 μg/mL (BD Bioscience) were added to the cell culture medium 3 days after transfection. Two weeks after transfection, colonies had appeared and were manually picked and sorted to one cell per well in a 96-well plate. Cells were then tested for Kir3.1 and Kir3.4 expression using membrane potential assay, Western Blot and Immunocytochemistry. […] The cell line was re-sorted by flow cytometry and resulting clones were assayed electrophysiologically using IonWorks (Molecular Devices) and later validated on the Q-Patch (Sophion A/S).
The stable cell line was cultured in DMEM/F12 with Glutamax 1 (Invitrogen Corporation, Paisley, UK), supplemented with foetal bovine serum 10%, puromycin 3 μg/mL, hygromycin 300 μg/mL and geneticin 600 μg/mL (Invitrogen Corporation, Paisley, UK). Care was taken not to seed cells at too low density and cells were passaged at approximately 70-80% confluency. Cells used for patch-clamp experiments were prepared by washing using PBS (—Mg, —Ca^2+), 2 times, detached using Accutase (Sigma). For Q-Patch measurements, storage medium was prepared fresh by adding 1.25 mL of 1M Hepes (GibcoBRL) to 50 mL CHO-SFM II medium (GibcoBRL) and detached cells were diluted to 2 million cells/mL in this medium. Frozen (Cryopreserved) cells were used for Atomic Absorption Screening (AAS) and plated poly-D-lysine 384-well plates (Greiner) at a density of 11,000-13,000 cells/well, the day before assay.
The blocking effects of compounds on the human cardiac ion channel proteins hKir3.1/Kir3.4 were assessed in CHO-K1 cells stably expressing the channel proteins using Atomic Absorption Screening (AAS). Cells were washed and then loaded with 25 μL Rb-loading buffer for three hours at 37° C. After that, the cells were washed again and 25 μL of diluted compound was transferred to the cell plate, incubated for 5 min in RT, and then […] of Carbachol/high K+ (10 μM carbachol and 20 mM KCl final concentration) buffer added to stimulate the cells and open the Kir3.1/Kir3.4 channel. After 10 min stimulation, […] of the supernatant was transferred to a new microplate, 45 μL washing buffer added to the supernatant and the level of Rb in the supernatant was then measured using an Aurora ICR 8000. Compounds were studied at concentrations ranging from 0.003 to 67 μmol/L (dilutions by three, 10-pt CR) or from 0.037 to 27 μmol/L (dilutions by three, 7-pt CR).
Stock solutions of compounds were prepared in DMSO 10 mM and stored at RT. Buffers used for AAS contained (in mM): HEPES 20, NaCl 150, MgCl2 1.0, CaCl2 2.0 and NaH2PO4 0.8 and Glucose 10 (wash 1) or KCl 5 and Glucose 5 (wash 2) or KCl 5 (dilution buffer). The High K^+ channel opener buffer contained (in mM): HEPES 20, NaCl 130, MgCl2 1.0, CaCl2 2.0 and NaH2PO4 0.8 together with KCl 20. Solutions used for Q-Patch (extracellular) in mM: NaCl 145, KCl 4, CaCl2 2.0, MgCl2 1.0, HEPES 10 and glucose 10. The high K^+ extra cellular solution used for Q-Patch in mM: NaCl 96.7, KCl 50.7, CaCl2 2.0, MgCl2 1.0, HEPES 10 and glucose 10 while the intra cellular solution used was (in mM): KCl 120, CaCl2 5.374, MgCl2 1.75, EGTA 10, KOH 3.125, HEPES 10, Na2ATP 4.
Results are given as mean IC50 of >4 replicates (10-pt CR, AAS) or >3 replicates (7-pt CR, AAS). Some of the data in Table 1 are mean values of two or more runs. […]

`CCC[C@@H](CN1CCC1)N(C)C(=O)c1ccc(Cl)cc1Cl` [Example 1.1, (S)—N-(1-(Azetidin-1-yl)pentan-2-yl)-2,4-dichloro-N-methylbenzamide]: the pIC50 (commonly the negative decadic logarithm of the IC50, by convention in mol/L) was 5.64.
With `CCC[C@@H](CN1CCC1)N(C)C(=O)c1ccc(Br)cc1` [Example 1.3, (S)-N-(1-(Azetidin-1-yl)pentan-2-yl)-4-bromo-N-methylbenzamide], the pIC50 is 5.51.
As to `Cc1cc(C(=O)N(C)[C@H](CN2CC(F)C2)C(C)C)ccc1F` [Example 1.5, (S)-4-Fluoro-N-(1-(3-fluoroazetidin-1-yl)-3-methylbutan-2-yl)-N,3-dimethylbenzamide], the pIC50 was 4.92.
Next, `CC(C)[C@@H](CN1CC(F)C1)N(C)C(=O)c1ccc(Cl)cc1` [Example 1.6, (S)-4-Chloro-N-(1-(3-fluoroazetidin-1-yl)-3-methylbutan-2-yl)-N-methylbenzamide]: 5.17; `CC(C)[C@@H](CN1CC(F)C1)N(C)C(=O)c1ccc(Br)cc1` [Example 1.7, (S)-4-Bromo-N-(1-(3-fluoroazetidin-1-yl)-3-methylbutan-2-yl)-N-methylbenzamide]: 5.30.
For `CC(C)[C@@H](CN1CC(F)C1)N(C)C(=O)c1ccc(F)c(Cl)c1` [Example 1.8, (S)-3-Chloro-4-fluoro-N-(1-(3-fluoroazetidin-1-yl)-3-methylbutan-2-yl)-N-methylbenzamide], the pIC50 is 4.96.
Next, `CC(C)[C@@H](CN1CC(F)C1)N(C)C(=O)c1ccc(F)c(C(F)(F)F)c1` [Example 1.9, (S)-4-Fluoro-N-(1-(3-fluoroazetidin-1-yl)-3-methyl-butan-2-yl)-N-methyl-3-(trifluoromethyl)benzamide]: 5.44; `Cc1cc(C(=O)N(C)[C@H](CN2CCC2)C(C)C)ccc1F` [Example 1.10, (S)-N-(1-(Azetidin-1-yl)-3-methylbutan-2-yl)-4-fluoro-N,3-dimethylbenzamide]: 5.16.
For `CC(C)[C@@H](CN1CCC1)N(C)C(=O)c1ccc(F)c(C(F)(F)F)c1` [Example 1.11, (S)-N-(1-(Azetidin-1-yl)-3-methylbutan-2-yl)-4-fluoro-N-methyl-3-(trifluoromethyl)benzamide] the value was 5.92; for `CC(C)[C@@H](CN1CCC1)N(C)C(=O)c1ccc(F)c(Cl)c1` [Example 1.12, (S)-N-(1-(Azetidin-1-yl)-3-methylbutan-2-yl)-3-chloro-4-fluoro-N-methylbenzamide], 5.54.
For `CC(C)[C@@H](CN1CCC1)N(C)C(=O)c1cccc(Cl)c1` [Example 1.13, (S)-N-(1-(Azetidin-1-yl)-3-methylbutan-2-yl)-3-chloro-N-methylbenzamide] the value was 4.92; for `CC(C)[C@@H](CN1CCC1)N(C)C(=O)c1ccccc1` [Example 1.14, (S)-N-(1-(Azetidin-1-yl)-3-methylbutan-2-yl)-N-methylbenzamide], 5.18.
With `CC(C)[C@@H](CN1CCC1)N(C)C(=O)c1cccc(C(F)(F)F)c1` [Example 1.15, (S)-N-(1-(Azetidin-1-yl)-3-methylbutan-2-yl)-N-methyl-3-(trifluoromethyl)benzamide], the pIC50 was 5.64.
For `Cc1cccc(C(=O)N(C)[C@H](CN2CCC2)C(C)C)c1` [Example 1.16, (S)-N-(1-(Azetidin-1-yl)-3-methylbutan-2-yl)-N,3-dimethyl-benzamide] the value was 4.77.
Regarding `CN(C(=O)c1ccc(Cl)c(Cl)c1)[C@H](CN1CCCC1)C(C)(C)C` [Example 2.1, (S)-3,4-Dichloro-N-(3,3-dimethyl-1-(pyrrolidin-1-yl)butan-2-yl)-N-methylbenzamide], the pIC50 was 4.96.
Next, `CN(C(=O)c1ccc(Br)cc1)[C@H](CN1CCCC1)C(C)(C)C` [Example 2.2, (S)-4-Bromo-N-(3,3-dimethyl-1-(pyrrolidin-1-yl)butan-2-yl)-N-methylbenzamide]: 4.85; `CC[C@H](C)[C@@H](CN1CCCC1)N(C)C(=O)c1ccc(Cl)cc1` [Example 2.3, 4-Chloro-N-methyl-N-((2S,3S)-3-methyl-1-(pyrrolidin-1-yl)pentan-2-yl)benzamide]: 5.80.
For `CC[C@H](C)[C@@H](CN1CCCC1)N(C)C(=O)c1ccc(Br)cc1` [Example 2.4, 4-Bromo-N-methyl-N-((2S,3S)-3-methyl-1-(pyrrolidin-1-yl)pentan-2-yl)benzamide] the value was 5.74; for `CC[C@H](C)[C@@H](CN1CCCC1)N(C)C(=O)c1ccc(F)c(C)c1` [Example 2.5, 4-Fluoro-N,3-dimethyl-N-((2S,3S)-3-methyl-1-(pyrrolidin-1-yl)pentan-2-yl)benzamide], 5.57.
For `CC[C@H](C)[C@@H](CN1CCCC1)N(C)C(=O)c1ccc(Cl)cc1Cl` [Example 2.6, 2,4-Dichloro-N-methyl-N-((2S,3S)-3-methyl-1-(pyrrolidin-1-yl)pentan-2-yl)benzamide] the value was 5.70; for `CO[C@H](C)[C@@H](CN1CCCC1)N(C)C(=O)c1ccc(F)c(C)c1` [Example 3.1, 4-Fluoro-N-((2R,3R)-3-methoxy-1-(pyrrolidin-1-yl)butan-2-yl)-N,3-dimethylbenzamide], 5.13.
With `CO[C@H](C)[C@@H](CN1CCCC1)N(C)C(=O)c1cccc(C)c1` [Example 3.2, N-((2R,3R)-3-Methoxy-1-(pyrrolidin-1-yl)butan-2-yl)-N,3-dimethylbenzamide], the pIC50 was 4.70.
For `CO[C@H](C)[C@@H](CN1CCCC1)N(C)C(=O)c1ccc(F)c(Cl)c1` [Example 3.3, 3-Chloro-4-fluoro-N-((2R,3R)-3-methoxy-1-(pyrrolidin-1-yl)butan-2-yl)-N-methylbenzamide] the value was 5.14.
